The test system of data set [1] is antigen-induced airway hyperreactivity. In words: Antigen-induced airway hyperactivity assay in ovalbumin-sensitized guinea pigs. The data set is classed as in vivo, guinea pig. The settings on record: for Increase in Airway Resistance (Area Under Curve) / Dynamic Lung Compliance (Area Under Curve): 24 hours prior to antigen challenge, histamine challenge i.v.; for Increase in Airway Resistance (Area Under Curve): Saline 3490, OVA (no treatment) 12586; for Dynamic Lung Compliance (Area Under Curve): Saline −799, OVA (no treatment) −1386. How it is done:
Antigen sensitization and challenge: Male Hartley guinea pigs (225-250 g) were sensitized with ovalbumin (0.5 ml of 1% solution, i.p. and s.c.) on day 1 (Aug. 25, 2008). On day 4 (Aug. 28, 2008), animals received a booster injection (i.p.) of 0.5 ml of 1% ovalbumin. On day 21 (Sep. 16, 2008), animals were orally dosed (2 ml/kg) with either vehicle (0.5% methylcellulose/0.2% Tween 80) or compound(s) 24 hours prior to antigen challenge. Thirty minutes before antigen challenge the animals were also injected with mepyramine (10 mg/kg, i.p.) to prevent anaphylactic collapse. Animals were then exposed for 20 min to an aerosol of 1% ovalbumin using a DeVilbiss Ultraneb nebulizer. Negative control animals were not challenged. Sensitizing solution: One gram (1 g) of albumin from chicken egg white (Sigma A55031G; lot#087K7004) was added to 100 ml of saline and allowed to go into solution.
Airway resistance measurement: Eighteen to twenty four hours after challenge, animals were anesthetized, (0.5 ml dose (i.m.) of cocktail containing ketamine (62 mg/kg), xylazine (30 mg/kg) and Promace (1.5 mg/kg)), surgically prepared and then placed in a whole body plethysmograph. Animals were connected to Ugo-Basile ventilators delivering a tidal volume of 1 ml/100 g at a rate of 50 breaths/minute via a tracheal cannula. The jugular vein is also cannulated for histamine challenge. A-water filled esophageal cannula was placed such that transpulmonary pressure could be recorded. Transpulmonary pressure was measured as the difference between the tracheal and esophageal cannulas using a differential pressure transducer. The volume, airflow, and transpulmonary pressure signals are monitored using a pulmonary analysis system (Buxco XA software) and used to calculate pulmonary resistance (cmH2O/ml/s) and dynamic compliance (ml/cmH20). Airway resistance and dynamic compliance are computed on a breath-by-breath basis. Histamine is administered intravenously and reactivity to increasing concentrations (1-20 μg/kg) assessed.

Data set [2] can be described thus: Suspension of benzoate salt in water, solid form checked by XRPD and thermal analysis. The data set is classed as physicochemical. The settings on record: 50 mg/mL free base equivalent in nanopure water, total 29 hours as suspension, then air dried. Here is the method:
Sample Preparation: Material was prepared as in the reference example 3 above. A suspension of the benzoate salt was prepared as 50 mg/mL free base equivalent in nanopure water, which was 63.6 mg salt in 1 mL water. Sample was stirred at 500 rpm overnight and allowed to stand for 4 hours before it was centrifuged (total 29 hours as suspension). It was centrifuged at 13000 rpm for 8 minutes and the collected solid was analyzed by XRPD (x-ray power diffraction) as wet sample and evaluated by microscope. The wet solid was then air dried at ambient room temperature overnight to be analyzed as the dry sample by XRPD and thermal analysis. The as is drug substance is compared as the initial material. The XRPD of free base drug substance was also used as the comparison. The benzoate appeared to be a variable hydrate, with the XRPD displaying the same peaks for different amounts of water.
• XRPD Method • Siemens Model D5000 with Cu anticathode • Program: 1.0 Sec. dql • Range: 2° to 40°. […]

Data set [3] addresses T1, recombinant human β tryptase (Homo sapiens, UniProt Q15661).
T1 construct: made in house; host or cells: yeast cells
In words: β-Tryptase inhibitory potency, in vitro enzyme assay (IC50 and Ki determination). The data set is classed as biochemical. The settings on record: 0.5 mM substrate S2366 (2×Km), room temperature, pH 8.2; Ki=IC50/(1+[Substrate]/Km). How it is done: Tryptase inhibition activity is confirmed using either isolated human lung tryptase or recombinant human β tryptase expressed in yeast cells. Essentially equivalent results are obtained using isolated native enzyme or the expressed enzyme. The assay procedure employs a 96 well microplate (Costar 3590) using L-pyroglutamyl-L-prolyl-L-arginine-para-nitroanilide (S2366: Quadratech) as substrate (essentially as described by McEuen et. al. Biochem Pharm, 1996, 52, pages 331-340). Assays are performed at room temperature using 0.5 mM substrate (2×Km) in 50 mM Tris (pH 8.2), 100 mM NaCl, 0.05% Tween 20, 50 μg/mL heparin, and the microplate is read on a microplate reader (Beckman Biomek Plate reader) at 405 nm wavelength.
The protocol is essentially the same as above except that the compound is added in duplicates at the following final concentrations: 0.01, 0.03, 0.1, 0.3, 1, 3, 10 μM (All dilutions carried out manually). For every assay, whether single point or IC50 determination, a standard compound is used to derive IC50 for comparison. From the IC50 value, the Ki can be calculated using the following formula: Ki=IC50/(1+[Substrate]/Km).

T1 sequence (Q15661 31-275): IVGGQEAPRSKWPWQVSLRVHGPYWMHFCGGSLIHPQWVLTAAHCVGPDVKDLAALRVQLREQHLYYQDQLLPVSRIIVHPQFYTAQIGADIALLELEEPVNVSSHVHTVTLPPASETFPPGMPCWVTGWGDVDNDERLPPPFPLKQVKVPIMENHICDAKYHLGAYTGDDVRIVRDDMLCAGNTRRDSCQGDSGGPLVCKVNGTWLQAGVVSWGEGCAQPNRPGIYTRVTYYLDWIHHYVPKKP

`COCCn1cc(C(=O)N2CCC(c3cc(CN)ccc3F)CC2)c2c(OC(F)(F)F)ccc(F)c21.COCCn1cc(C(=O)N2CCC(c3cc(CN)ccc3F)CC2)c2c(OC(F)(F)F)ccc(F)c21.O.O.O=C(O)/C=C/C(=O)O.O=C(O)/C=C/C(=O)O.O=C(O)/C=C/C(=O)O` [Fumarate Salt, [4-(5-Aminomethyl-2-fluorophenyl)piperidine-1-yl][7-fluoro-1-(2-methoxyethyl)-4-trifluoromethoxy-1H-indol-3-yl]methanone Sesquifumarate Monohydrate]: the “Increase in Airway Resistance (Area Under Curve)” value is 9647 +/− 818 in data set [1] (0.01 mg/kg oral), 8103 +/− 745 in data set [1] (0.03 mg/kg oral) and 6623 +/− 511 in data set [1] (0.1 mg/kg oral). In addition, the “Dynamic Lung Compliance (Area Under Curve)” value in data set [1] (0.01 mg/kg oral) is −1218 +/− 47; in data set [1] (0.03 mg/kg oral), −1156 +/− 40; in data set [1] (0.1 mg/kg oral), −1004 +/− 43. Moreover, the “Inhibition of antigen-induced airway hyperreactivity (in words)” value in data set [1] (dosed 24 hours prior to allergen challenge, guinea pig, oral) was “dose-related inhibition of antigen-induced airway hyperreactivity”.

For `COCCn1cc(C(=O)N2CCC(c3cc(CN)ccc3F)CC2)c2c(OC(F)(F)F)ccc(F)c21.O=C(O)c1ccccc1` [benzoate salt, [4-(5-Aminomethyl-2-fluorophenyl)piperidine-1-yl][7-fluoro-1-(2-methoxyethyl)-4-trifluoromethoxy-1H-indol-3-yl]methanone Benzoate], in data set [2], the “Solid form stability in aqueous suspension (XRPD and thermal analysis)” value was “no free base or conversions to hydrate form were noted”.

As a reminder, the Ki is the dissociation constant of the complex between target and ligand, obtained from inhibition or displacement. Regarding `COCCn1cc(C(=O)N2CCC(c3cc(CN)ccc3F)CC2)c2c(OC(F)(F)F)ccc(F)c21` [compound of formula I, [4-(5-aminomethyl-2-fluoro-phenyl)-piperidin-1-yl]-[7-fluoro-1-(2-methoxy-ethyl)-4-trifluoromethoxy-1H-indol-3-yl]-methanone], in data set [3], the Ki is 26 ± 5 nM.

The values are drawn from US8217178B2, “[4-(5-aminomethyl-2-fluoro-phenyl)-piperidin-1-yl]-[7-flouro-1-(2-methoxy-ethyl)-4-trifluorom as an inhibitor of mast cell tryptase” (Sanofi, priority 2008, dated 2012).
